Results on 25 molecules are retold here after patent publication US12043632B2, “6-heteroaryloxy benzimidazoles and azabenzimidazoles as JAK2 inhibitors” (Ajax Therapeutics, Inc., priority 2020, dated 2024).

pKd: −log10 of the molar value. Some results are limits rather than exact numbers.

For this experiment, the target named is T1, JAK2 (JH1domain-catalytic, Y1007F,Y1008F) kinase (Homo sapiens, UniProt O60674, Y1007F/Y1008F).
T1 construct: JAK2 (JH1domain-catalytic, Y1007F,Y1008F) kinase was expressed as N-terminal fusion; made in house; host or cells: transiently transfected HEK293 cells
T1 sequence (O60674 849-1124 Y1007F/Y1008F limits assumed): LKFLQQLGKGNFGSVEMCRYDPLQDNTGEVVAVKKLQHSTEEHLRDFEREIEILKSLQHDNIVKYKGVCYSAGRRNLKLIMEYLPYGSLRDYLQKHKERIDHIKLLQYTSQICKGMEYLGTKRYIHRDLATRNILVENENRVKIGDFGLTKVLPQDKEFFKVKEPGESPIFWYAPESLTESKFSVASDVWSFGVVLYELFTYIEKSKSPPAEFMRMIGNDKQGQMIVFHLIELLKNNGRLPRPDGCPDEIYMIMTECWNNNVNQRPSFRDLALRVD
The experiment is described as follows: JAK2 JH1 Domain Binding Assay. Conditions: qPCR readout.
In the case of `CNc1nccn2ncc(Oc3cnc4nc(Nc5cc(C(F)(F)F)cn(C)c5=O)n(C)c4c3C#N)c12` [Example I-193, 1-methyl-2-((1-methyl-2-oxo-5-(trifluoromethyl)-1,2-dihydropyridin-3-yl)amino)-6-((4-(methylamino)pyrazolo[1,5-a]pyrazin-3-yl)oxy)-1H-imidazo[4,5-b]pyridine-7-carbonitrile], the pKd (usually −log10 of the Kd, conventionally taken in molar units) was greater than 8.00.
With `Cn1c(Nc2cc(CN3CCOCC3)cc(C(F)(F)F)c2)nc2ncc(Oc3cnn4ccncc34)c(Cl)c21` [Example I-194, 7-chloro-1-methyl-N-(3-(morpholinomethyl)-5-(trifluoromethyl)phenyl)-6-(pyrazolo[1,5-a]pyrazin-3-yloxy)-1H-imidazo[4,5-b]pyridin-2-amine], the pKd was greater than 8.00.
Turning to `Cn1c(Nc2cc(CN3CC(F)C3)cc(C(F)(F)F)c2)nc2ncc(Oc3cnn4ccncc34)c(Cl)c21` [Example I-195, 7-chloro-N-(3-((3-fluoroazetidin-1-yl)methyl)-5-(trifluoromethyl)phenyl)-1-methyl-6-(pyrazolo[1,5-a]pyrazin-3-yloxy)-1H-imidazo[4,5-b]pyridin-2-amine], the negative logarithm of the Kd (pKd) was greater than 8.00.
Consider `COC1CN(Cc2cc(Nc3nc4ncc(Oc5cnn6ccncc56)c(Cl)c4n3C)cc(C(F)(F)F)c2)C1` [Example I-196, 7-chloro-N-(3-((3-methoxyazetidin-1-yl)methyl)-5-(trifluoromethyl)phenyl)-1-methyl-6-(pyrazolo[1,5-a]pyrazin-3-yloxy)-1H-imidazo[4,5-b]pyridin-2-amine], for which the pKd was greater than 8.00.
As to `Cn1c(Nc2cc(CN3CCC(F)(F)C3)cc(C(F)(F)F)c2)nc2ncc(Oc3cnn4ccncc34)c(Cl)c21` [Example I-197, 7-chloro-N-(3-((3,3-difluoropyrrolidin-1-yl)methyl)-5-(trifluoromethyl)phenyl)-1-methyl-6-(pyrazolo[1,5-a]pyrazin-3-yloxy)-1H-imidazo[4,5-b]pyridin-2-amine], the pKd was greater than 8.00.
The molecule `COC1CCN(Cc2cc(Nc3nc4ncc(Oc5cnn6ccncc56)c(Cl)c4n3C)cc(C(F)(F)F)c2)CC1` [Example I-198, 7-chloro-N-(3-((4-methoxypiperidin-1-yl)methyl)-5-(trifluoromethyl)phenyl)-1-methyl-6-(pyrazolo[1,5-a]pyrazin-3-yloxy)-1H-imidazo[4,5-b]pyridin-2-amine] showed a pKd greater than 8.00.
With `CNc1nccn2ncc(Oc3cnc4nc(Nc5cc(C6CC6)nn(C)c5=O)n(C)c4c3Cl)c12` [Example I-199, 4-((7-chloro-1-methyl-6-((4-(methylamino)pyrazolo[1,5-a]pyrazin-3-yl)oxy)-1H-imidazo[4,5-b]pyridin-2-yl)amino)-6-cyclopropyl-2-methylpyridazin-3(2H)-one] the figure was greater than 8.00.
Regarding `Cn1c(C#N)c(C(F)(F)F)cc(Nc2nc3ncc(Oc4cnn5ccncc45)c(Cl)c3n2C)c1=O` [Example I-200, 5-((7-chloro-1-methyl-6-(pyrazolo[1,5-a]pyrazin-3-yloxy)-1H-imidazo[4,5-b]pyridin-2-yl)amino)-1-methyl-6-oxo-3-(trifluoromethyl)-1,6-dihydropyridine-2-carbonitrile], the negative logarithm of the Kd (pKd) was 7.30 to 8.00.
Consider `CNc1nccn2ncc(Oc3cnc4nc(Nc5cc(C(F)(F)C(F)(F)F)cn(C)c5=O)n(C)c4c3Cl)c12` [Example I-201, 3-((7-chloro-1-methyl-6-((4-(methylamino)pyrazolo[1,5-a]pyrazin-3-yl)oxy)-1H-imidazo[4,5-b]pyridin-2-yl)amino)-1-methyl-5-(perfluoroethyl)pyridin-2(1H)-one], for which the pKd is greater than 8.00.
Under `CNc1nccn2ncc(Oc3cnc4nc(Nc5cc(C(F)(F)F)cn(C(C)C)c5=O)n(C)c4c3Cl)c12` [Example I-202, 3-((7-chloro-1-methyl-6-((4-(methylamino)pyrazolo[1,5-a]pyrazin-3-yl)oxy)-1H-imidazo[4,5-b]pyridin-2-yl)amino)-1-isopropyl-5-(trifluoromethyl)pyridin-2(1H)-one] stands greater than 8.00.
`Cn1c(Nc2cnc(N3CCC3)c(C(F)(F)F)c2)nc2ncc(Oc3cnn4ccncc34)c(Cl)c21` [Example I-203, N-(6-(azetidin-1-yl)-5-(trifluoromethyl)pyridin-3-yl)-7-chloro-1-methyl-6-(pyrazolo[1,5-a]pyrazin-3-yloxy)-1H-imidazo[4,5-b]pyridin-2-amine] showed a pKd of 7.30 to 8.00.
Molecule `Cn1c(Nc2cc(CN3CC[C@@H](O)C3)cc(C(F)(F)F)c2)nc2ncc(Oc3cnn4ccncc34)c(Cl)c21` [Example I-204, (R)-1-(3-((7-chloro-1-methyl-6-(pyrazolo[1,5-a]pyrazin-3-yloxy)-1H-imidazo[4,5-b]pyridin-2-yl)amino)-5-(trifluoromethyl)benzyl)pyrrolidin-3-ol] gave a pKd greater than 8.00.
With `Cn1c(Nc2cc(CN3CC[C@H](O)C3)cc(C(F)(F)F)c2)nc2ncc(Oc3cnn4ccncc34)c(Cl)c21` [Example I-205, (S)-1-(3-((7-chloro-1-methyl-6-(pyrazolo[1,5-a]pyrazin-3-yloxy)-1H-imidazo[4,5-b]pyridin-2-yl)amino)-5-(trifluoromethyl)benzyl)pyrrolidin-3-ol] the figure was greater than 8.00; with `CN1CCC(Oc2cc(Nc3nc4ncc(Oc5cnn6ccncc56)c(Cl)c4n3C)cc(C(F)(F)F)c2)CC1` [Example I-206, 7-chloro-1-methyl-N-(3-((1-methylpiperidin-4-yl)oxy)-5-(trifluoromethyl)phenyl)-6-(pyrazolo[1,5-a]pyrazin-3-yloxy)-1H-imidazo[4,5-b]pyridin-2-amine], greater than 8.00.
The molecule `Cn1c(Nc2ccc(CN3CCN(CCO)CC3)c(C(F)(F)F)c2)nc2ncc(Oc3cnn4ccncc34)c(Cl)c21` [Example I-207, 2-(4-(4-((7-chloro-1-methyl-6-(pyrazolo[1,5-a]pyrazin-3-yloxy)-1H-imidazo[4,5-b]pyridin-2-yl)amino)-2-(trifluoromethyl)benzyl)piperazin-1-yl)ethan-1-ol] had a pKd greater than 8.00.
With `Cn1c(Nc2ccc(CN3CCN(CC(F)F)CC3)c(C(F)(F)F)c2)nc2ncc(Oc3cnn4ccncc34)c(Cl)c21` [Example I-208, 7-chloro-N-(4-((4-(2,2-difluoroethyl)piperazin-1-yl)methyl)-3-(trifluoromethyl)phenyl)-1-methyl-6-(pyrazolo[1,5-a]pyrazin-3-yloxy)-1H-imidazo[4,5-b]pyridin-2-amine], the pKd was 6.00 to 7.30.
Regarding `CN1CC[C@@H](Oc2cc(Nc3nc4ncc(Oc5cnn6ccncc56)c(Cl)c4n3C)cc(C(F)(F)F)c2)C1` [Example I-209, (R)-7-chloro-1-methyl-N-(3-((1-methylpyrrolidin-3-yl)oxy)-5-(trifluoromethyl)phenyl)-6-(pyrazolo[1,5-a]pyrazin-3-yloxy)-1H-imidazo[4,5-b]pyridin-2-amine], the pKd is 7.30 to 8.00.
As to `CN1CC[C@H](Oc2cc(Nc3nc4ncc(Oc5cnn6ccncc56)c(Cl)c4n3C)cc(C(F)(F)F)c2)C1` [Example I-210, (S)-7-chloro-1-methyl-N-(3-((1-methylpyrrolidin-3-yl)oxy)-5-(trifluoromethyl)phenyl)-6-(pyrazolo[1,5-a]pyrazin-3-yloxy)-1H-imidazo[4,5-b]pyridin-2-amine], the pKd is greater than 8.00.
In the case of `COc1c(Oc2cnn3ccnc(OC)c23)cnc2nc(Nc3cc(C4CC4)cn(C)c3=O)n(C)c12` [Example I-211, 5-cyclopropyl-3-((7-methoxy-6-((4-methoxypyrazolo[1,5-a]pyrazin-3-yl)oxy)-1-methyl-1H-imidazo[4,5-b]pyridin-2-yl)amino)-1-methylpyridin-2(1H)-one], the negative-log Kd (pKd) was greater than 8.00.
Take `Cn1cc(C(F)(F)F)cc(Nc2nc3ncc(Oc4cnn5ccccc45)c(C#N)c3n2C)c1=O` [Example I-212, 1-methyl-2-((1-methyl-2-oxo-5-(trifluoromethyl)-1,2-dihydropyridin-3-yl)amino)-6-(pyrazolo[1,5-a]pyridin-3-yloxy)-1H-imidazo[4,5-b]pyridine-7-carbonitrile]: the pKd is greater than 8.00.
The molecule `Cn1c(Nc2cc(C(F)(F)F)cn([C@H]3C[C@@H](O)C3)c2=O)nc2ncc(Oc3cnn4ccc(F)cc34)c(Cl)c21` [Example I-213, cis-3-((7-chloro-6-((5-fluoropyrazolo[1,5-a]pyridin-3-yl)oxy)-1-methyl-1H-imidazo[4,5-b]pyridin-2-yl)amino)-1-(3-hydroxycyclobutyl)-5-(trifluoromethyl)pyridin-2(1H)-one] had a pKd of 7.30 to 8.00.
With `CNc1nccn2ncc(Oc3cnc4nc(Nc5cc(C(F)(F)F)cn([C@H]6C[C@@H](O)C6)c5=O)n(C)c4c3Cl)c12` [Example I-214, 3-((7-chloro-1-methyl-6-((4-(methylamino)pyrazolo[1,5-a]pyrazin-3-yl)oxy)-1H-imidazo[4,5-b]pyridin-2-yl)amino)-1-((1s,3s)-3-hydroxycyclobutyl)-5-(trifluoromethyl)pyridin-2(1H)-one] the figure was greater than 8.00.
As for `CN(C)Cc1cc(F)c(Nc2nc3ncc(Oc4cnn5ccncc45)c(Cl)c3n2C)cc1C(F)(F)F` [Example I-215, 7-chloro-N-(4-((dimethylamino)methyl)-2-fluoro-5-(trifluoromethyl)phenyl)-1-methyl-6-(pyrazolo[1,5-a]pyrazin-3-yloxy)-1H-imidazo[4,5-b]pyridin-2-amine], the pKd is greater than 8.00.
The molecule `CNc1nccn2ncc(Oc3cnc4nc(Nc5ccc(CN6CC(C#N)C6)c(C(F)(F)F)c5)n(C)c4c3Cl)c12` [Example I-216, 1-(4-((7-chloro-1-methyl-6-((4-(methylamino)pyrazolo[1,5-a]pyrazin-3-yl)oxy)-1H-imidazo[4,5-b]pyridin-2-yl)amino)-2-(trifluoromethyl)benzyl)azetidine-3-carbonitrile] showed a pKd of 7.30 to 8.00.
With `[2H]C([2H])([2H])n1cc(C(F)(F)F)cc(Nc2nc3ncc(Oc4cnn5ccnc(NC)c45)c(Cl)c3n2C)c1=O` [Example I-217, 3-((7-chloro-1-methyl-6-((4-(methylamino)pyrazolo[1,5-a]pyrazin-3-yl)oxy)-1H-imidazo[4,5-b]pyridin-2-yl)amino)-1-(methyl-d3)-5-(trifluoromethyl)pyridin-2(1H)-one] the figure was greater than 8.00.
